From patent US10760052B2, “Method of inhibiting tau phosphorylation” (priority 2012, dated 2020)
Where two headings read alike, the source gives them in different places.

Molecular target: T1, mu opiate receptor (MOR) (Rattus norvegicus, UniProt P33535)
T1 construct: from tissue; host or cells: striatum (membrane preparation)
Assay type: biochemical
Conditions: for Concentration of FLNA-Binding Compound as Agonist 0.1 μM / Concentration of FLNA-Binding Compound as Agonist 1 μM / Concentration of FLNA-Binding Compound as Agonist 1 μM + BFNA: [35S]GTPγS binding to Gαo in striatal membranes; for Concentration of FLNA-Binding Compound as Agonist 0.1 μM: compound 0.1 μM; for Concentration of FLNA-Binding Compound as Agonist 1 μM: compound 1 μM; for Concentration of FLNA-Binding Compound as Agonist 1 μM + BFNA: compound 1 μM plus 1 μM β-funaltrexamine (MOR antagonist)
Method: To assess the mu opiate receptor (MOR) agonist activity of positive compounds from the FLNA screening, compounds were tested in a [^35S]GTPγS binding assay using striatal membranes. […] This assay measures a functional consequence of receptor occupancy at one of the earliest receptor-mediated events. The assay permits for traditional pharmacological parameters of potency, efficacy and antagonist affinity, with the advantage that agonist measures are not subjected to amplification or other modulation that may occur when analyzing parameters further downstream of the receptor.
Thus, striatal tissue was homogenized in 10 volumes of ice cold 25 mM HEPES buffer, pH 7.4, which contained 1 mM EGTA, 100 mM sucrose, 50 μg/ml leupeptin, 0.04 mM PMSF, 2 μg/ml soybean trypsin inhibitor and 0.2% 2-mercaptoethanol. The homogenates were centrifuged at 800×g for 5 minutes and the supernatants were centrifuged at 49,000×g for 20 minutes.
The resultant striatal membrane preparation (200 μg) was admixed and maintained (incubated) at 30° C. for 5 minutes in reaction buffer as above that additionally contained 1 mM MgCl2 and 0.5 nM [^35S]GTPγS (0.1 μCi/assay, PerkinElmer Life and Analytical Sciences) in a total volume of 250 μl and continued for 5 minutes in the absence or presence of 0.1-10 μM of an assayed compound of interest. The reaction was terminated by dilution with 750 μl of ice-cold reaction buffer that contained 20 mM MgCl2 and 1 mM EGTA and immediate centrifugation at 16,000×g for 5 minutes.
Normal rabbit serum (1 μl) was added to 1 ml of lysate and incubated at 25° C. for 30 minutes. Nonspecific immune complexes were removed by incubation with 25 μl of protein A/G-conjugated agarose beads at 25° C. for 30 minutes followed by centrifugation at 5,000×g at 4° C. for 5 minutes. The supernatant was divided and separately incubated at 25° C. for 30 minutes with antibodies raised against Gαo proteins (1:1,000 dilutions).
The immunocomplexes so formed were collected by incubation at 25° C. for 30 minutes with 40 μl of agarose-conjugated protein A/G beads and centrifugation at 5,000×g at 4° C. for 5 minutes. The pellet was washed and suspended in buffer containing 50 mM Tris-HCl, pH 8.0, and 1% NP-40. The radioactivity in the suspension was determined by liquid scintillation spectrometry.

[1] = 0.1 μM compound, striatal membranes, Series C-2
[2] = 1 μM compound + 1 μM β-FNA (selective MOR antagonist), Series C-2
[3] = 1 μM compound, striatal membranes, Series C-2

T1 sequence (P33535 whole entry): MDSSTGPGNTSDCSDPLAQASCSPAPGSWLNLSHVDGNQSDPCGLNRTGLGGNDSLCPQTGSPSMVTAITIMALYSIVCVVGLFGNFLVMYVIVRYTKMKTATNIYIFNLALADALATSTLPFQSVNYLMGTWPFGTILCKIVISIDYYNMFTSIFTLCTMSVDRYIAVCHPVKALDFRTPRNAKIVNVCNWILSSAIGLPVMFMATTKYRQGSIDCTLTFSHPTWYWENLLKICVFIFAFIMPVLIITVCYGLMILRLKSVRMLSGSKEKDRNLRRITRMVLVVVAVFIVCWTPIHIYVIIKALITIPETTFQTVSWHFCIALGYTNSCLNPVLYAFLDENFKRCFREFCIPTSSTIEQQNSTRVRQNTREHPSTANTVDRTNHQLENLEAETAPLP

Structure (SMILES) | % DAMGO (0.1 μM) [%] | % DAMGO (1 μM) [%] | % DAMGO + BFNA [%] | Concentration of FLNA-Binding Compound as Agonist 0.1 μM [%] | Concentration of FLNA-Binding Compound as Agonist 1 μM [%] | Concentration of FLNA-Binding Compound as Agonist 1 μM + BFNA [%] | [35S]GTPγS binding, FLNA-Binding Compound as Agonist at 0.1 μM [1] [%] | [35S]GTPγS binding, FLNA-Binding Compound as Agonist at 1 μM + BFNA [2] [%] | [35S]GTPγS binding, FLNA-Binding Compound as Agonist at 1 μM [3] [%] | [35S]GTPγS binding, FLNA-Binding Compound as Agonist at 0.1 μM [%] | [35S]GTPγS binding, FLNA-Binding Compound as Agonist at 1 μM [%] | [35S]GTPγS binding, FLNA-Binding Compound as Agonist at 1 μM + BFNA [%]
COc1cccc(OC)c1C(=O)CC1c2c(cc3c(c2OC)OCO3)CC[N+]1(C)C (stereo not drawn) [Compound B0023] | 99.4 | 100.1 | 81.8 | 166.1 | 245.3 | 28.4 | – | – | – | – | – | –
CN(C)c1cccc(OCC(O)CN2CCc3ccccc3C2)c1 (stereo not drawn) [Compound A0050] | 77.0 | 68.6 | 109.6 | 151.0 | 189.3 | 81.0 | – | – | – | – | – | –
COc1ccc(S(=O)(=O)N2CCOC23CCN(C(C)C)CC3)cc1 [Compound C0133M] | 83.2 | 96.6 | 152.4 | – | – | – | 139.4 | 72.4 | 214.8 | – | – | –
CC(=O)c1ccc(S(=O)(=O)N2CC(CN(C)C)OC23CCN(C)CC3)cc1 (stereo not drawn) [Compound C0108M] | 108.7 | 104.1 | 158.6 | – | – | – | 205.6 | 76.9 | 258.5 | – | – | –
CC1CCC(C(C)C)C(OCC(O)CN2CCCCC2=O)C1 (stereo not drawn) [Compound A0036] | 73.4 | 60.7 | 85.5 | 144.1 | 167.5 | 63.2 | – | – | – | – | – | –
COc1ccc(S(=O)(=O)N2CCC3(NCCO3)C3CCCCC32)cc1 (stereo not drawn) [Compound C0144M-2] | 108.3 | 90.8 | 137.9 | – | – | – | 186.3 | 125.9 | 295.9 | – | – | –
COc1ccc(OCC(O)CN2CCc3ccccc3C2)cc1 (stereo not drawn) [Compound A0053] | 46.5 | 47.5 | 46.2 | 78.5 | 118.2 | 15.1 | – | – | – | – | – | –
CN1CCC2(CC1)NCC(=O)N2Cc1ccccc1 [Compound C0105M] | 104.7 | 88.8 | 150.7 | – | – | – | 198.1 | 73.1 | 220.3 | – | – | –
CCCCN1CCC2(CC1)OCCN2S(=O)(=O)c1ccc(OC)cc1 [Compound C0102M] | 78.6 | 122.4 | 316.6 | – | – | – | 131.8 | 150.4 | 272.0 | – | – | –
COc1ccc(S(=O)(=O)N2CCOC23CCN(CC2CC2)CC3)cc1 [Compound C0090M] | 137.7 | 155.2 | 118.8 | – | – | – | – | – | – | 237.0 | 341.0 | 41.0
COc1ccc(CCC(=O)CC2c3c(cc4c(c3OC)OCO4)CC[N+]2(C)C)cc1 (stereo not drawn) [Compound B0016] | 99.2 | 79.9 | 109.4 | 167.7 | 213.6 | 72.2 | – | – | – | – | – | –
COc1cc(C(=O)CC2c3c(cc4c(c3OC)OCO4)CC[N+]2(C)C)cc(OC)c1OC (stereo not drawn) [Compound B0037] | 76.5 | 80.4 | 325.8 | 119.8 | 186.0 | 106.2 | – | – | – | – | – | –
CS(=O)(=O)c1ccc(S(=O)(=O)N2CCC3(CC2)OCCN3S(=O)(=O)c2ccc(S(C)(=O)=O)cc2)cc1 [Compound C0009] | 85.1 | 92.6 | 41.2 | 146.3 | 256.2 | 26.4 | – | – | – | – | – | –
COc1ccc(C(=O)CC2c3c(cc4c(c3OC)OCO4)CC[N+]2(C)C)cc1C (stereo not drawn) [Compound B0021] | 75.9 | 104.7 | 123.6 | 126.9 | 256.4 | 42.9 | – | – | – | – | – | –
O=C1CN(Cc2ccccc2)C2(CCN(C3CCCCC3)CC2)N1 [C0137M (P7)] | 95.6 | 78.1 | 115.1 | – | – | – | 180.8 | 55.8 | 193.8 | – | – | –
COc1cc(CC(=O)CC2c3c(cc4c(c3OC)OCO4)CC[N+]2(C)C)cc(OC)c1OC (stereo not drawn) [Compound B0008] | 84.0 | 101.9 | 70.0 | 148.3 | 264.1 | 46.0 | – | – | – | – | – | –
COc1c2c(cc3c1C(CC(=O)Cc1ccccc1C)[N+](C)(C)CC3)OCO2 (stereo not drawn) [Compound B0031] | 109.6 | 99.6 | 65.6 | 210.8 | 272.0 | 28.8 | – | – | – | – | – | –
CC(O)c1ccc(S(=O)(=O)N2CCC3(CC2)OCCN3S(=O)(=O)c2ccc(C(C)O)cc2)cc1 (stereo not drawn) [Compound C0051] | 65.1 | 73.1 | 127.0 | 94.4 | 170.4 | 55.9 | – | – | – | – | – | –
CNc1ccc(S(=O)(=O)N2CCC3(CC2)OCCN3S(=O)(=O)c2ccc(NC)cc2)cc1 [Compound C0024] | 92.8 | 84.1 | 135.1 | 178.4 | 229.6 | 59.3 | – | – | – | – | – | –
COc1c2c(cc3c1C(CC(=O)Cc1ccccc1C)N(C)CC3)OCO2 (stereo not drawn) [Compound B0053] | 94.8 | 137.0 | 809.0 | 160.2 | 299.8 | 134.3 | – | – | – | – | – | –
